Bounds are passed on as bounds.

This assay deals with Vaccinia virus. Briefly: Minimum inhibitory concentration required to reduce virus induced cytopathogenicity by 50% against vaccinia virus in rabbit primary kidney cell cultures. In kind it is functional. The settings on record: Orthopoxvirus vaccinia.

With `Cl.Cn1cc(NC(=O)c2cc(NC(=O)C(Cl)(Cl)Cl)cn2C)cc1C(=O)NCCC(=N)N`, the MIC is greater than 100 µg/mL.

`Cl.Cn1cc(NC(=O)c2cc(NC(=O)CCl)cn2C)cc1C(=O)NCCC(=N)N` came in with an MIC of 10 µg/mL.

The compound `Cl.Cn1cc(NC(=O)c2cc(NC(=O)CF)cn2C)cc1C(=O)NCCC(=N)N` displayed an MIC of 7 µg/mL.

`Cl.Cn1cc(NC(=O)c2cc(NC(=O)CCCCl)cn2C)cc1C(=O)NCCC(=N)N` gave an MIC of 20 µg/mL.

In turn, `Cl.Cl.Cn1cc(NC(=O)c2cc(NC(=O)c3cc(NC=O)cn3C)cn2C)cc1C(=O)NCCC(=N)N` registered an MIC of 0.2 µg/mL.

In turn, `Cl.Cn1cc(NC(=O)c2cc(NC(=O)C3CC3)cn2C)cc1C(=O)NCCC(=N)N` showed an MIC greater than 100 µg/mL.

As to `CC[N+](CC)(CC)CC.Cn1cc(NC(=O)c2cc(NC(=O)C(Cl)Cl)cn2C)cc1C(=O)NCCC(=N)N.O=S(=O)([O-])O`, the MIC was found to be 20 µg/mL.

On to `Cl.Cl.Cn1cc(NC(=O)c2cc(NC(=O)CNC(=N)N)cn2C)cc1C(=O)NCCC(=N)N` [CONGOCIDINE], for which the MIC turned out to be 2 µg/mL.

Source of the values: ChEMBL document CHEMBL1124029, “Novel DNA groove binding alkylators: design, synthesis, and biological evaluation” (1988).
